Reference: ChEMBL document CHEMBL5241112, “Insights into the recent progress in the medicinal chemistry of pyranopyrimidine analogs” (RSC Med Chem, 2022)
Values after ≈ are worked out from the molar mass of the structure shown.

Tests used:
Staphylococcus aureus [1] = assay: Antibacterial activity against Staphylococcus aureus assessed as bacterial growth inhibition by broth microdilution method; format: functional
Escherichia coli [2] = assay: Antibacterial activity against Escherichia coli assessed as bacterial growth inhibition by broth microdilution method; format: functional
Pseudomonas aeruginosa [3] = assay: Antibacterial activity against Pseudomonas aeruginosa assessed as bacterial growth inhibition by broth microdilution method; format: functional
Klebsiella pneumoniae [4] = assay: Antibacterial activity against Klebsiella pneumoniae assessed as bacterial growth inhibition by broth microdilution method; format: functional
Urease = Urease (Canavalia ensiformis, UniProt P07374); assay: Inhibition of jack bean urease by phenol red method
Chain of Urease (P07374 whole entry): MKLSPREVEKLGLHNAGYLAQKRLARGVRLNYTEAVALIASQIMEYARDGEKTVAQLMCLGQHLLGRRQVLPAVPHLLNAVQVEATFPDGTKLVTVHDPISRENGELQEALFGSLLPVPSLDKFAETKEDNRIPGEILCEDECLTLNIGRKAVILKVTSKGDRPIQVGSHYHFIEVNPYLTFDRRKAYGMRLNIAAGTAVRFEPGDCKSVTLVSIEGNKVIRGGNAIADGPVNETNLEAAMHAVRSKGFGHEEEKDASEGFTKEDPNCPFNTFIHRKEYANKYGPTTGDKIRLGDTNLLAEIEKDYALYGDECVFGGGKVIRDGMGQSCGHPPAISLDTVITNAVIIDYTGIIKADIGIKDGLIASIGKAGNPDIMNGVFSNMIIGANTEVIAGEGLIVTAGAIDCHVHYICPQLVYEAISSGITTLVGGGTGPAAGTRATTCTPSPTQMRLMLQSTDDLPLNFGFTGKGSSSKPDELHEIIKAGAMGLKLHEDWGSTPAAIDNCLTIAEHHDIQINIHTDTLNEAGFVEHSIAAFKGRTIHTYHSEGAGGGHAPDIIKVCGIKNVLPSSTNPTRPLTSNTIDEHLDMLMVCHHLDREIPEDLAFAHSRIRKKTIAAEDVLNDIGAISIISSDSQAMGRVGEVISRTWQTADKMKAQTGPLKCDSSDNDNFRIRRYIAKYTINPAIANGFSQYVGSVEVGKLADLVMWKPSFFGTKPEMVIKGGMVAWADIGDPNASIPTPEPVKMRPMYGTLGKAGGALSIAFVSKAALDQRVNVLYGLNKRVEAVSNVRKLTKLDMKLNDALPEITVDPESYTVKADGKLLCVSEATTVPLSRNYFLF

Homo sapiens = species: Homo sapiens; assay: Anticoagulant activity in human plasma assessed as activated partial thromboplastin time at 1000 ug/ml incubated for 4 mins; format: functional; conditions: dose 1000 µg/ml
HCT-116 = assay: Anticancer activity against human HCT-116 cells assessed as reduction in cell viability incubated for 96 hrs by MTT assay; format: functional, cell-based; conditions: HCT-116, 96 h
MCF7 [5] = assay: cells; format: functional, cell-based; conditions: Homo sapiens, MCF7, 96 h
[6] = Antioxidant activity assessed as DPPH radical scavenging activity at 12 ug incubated for 30 mins by spectrophotometric analysis; format: functional; conditions: dose 12.0 µg
Staphylococcus aureus [7] = assay: Antibacterial activity against Staphylococcus aureus NCIM 2654 assessed as diameter of inhibition zone incubated for 24 hrs by agar well diffusion method; format: functional
HeLa = assay: Anticancer activity against human HeLa cells assessed as reduction in cell viability incubated for 48 hrs by MTT assay; format: functional, cell-based
MCF7 [8] = assay: cells; conditions: Homo sapiens, MCF7, 48 h
[9] = Antioxidant activity assessed as NO radical scavenging activity; format: functional
Penicillium chrysogenum = assay: Antifungal activity against Penicillium chrysogenum assessed as diameter of inhibition zone by disc diffusion method; format: functional
Aspergillus ochraceus = assay: Antifungal activity against Aspergillus ochraceus assessed as diameter of inhibition zone by disc diffusion method; format: functional
[10] = Antioxidant activity assessed as H2O2 radical scavenging activity; format: functional
Salmonella typhimurium = assay: Antibacterial activity against Salmonella typhimurium assessed as diameter of inhibition zone; format: functional, Salmonella enterica subsp. enterica serovar Typhimurium
Escherichia coli [11] = assay: Antimicrobial activity against Escherichia coli ATCC 14169 assessed as diameter of inhibition zone at 20 mg/ml incubated for 24 hrs by disk diffusion method; format: functional; conditions: read-out: DIZ
Pseudomonas aeruginosa [12] = assay: Antimicrobial activity against Pseudomonas aeruginosa ATCC 27853 assessed as diameter of inhibition zone at 20 mg/ml incubated for 24 hrs by disk diffusion method; format: functional; conditions: read-out: DIZ
Klebsiella pneumoniae [13] = assay: Antimicrobial activity against Klebsiella pneumoniae UC57 assessed as diameter of inhibition zone at 20 mg/ml incubated for 24 hrs by disk diffusion method; format: functional; conditions: read-out: DIZ
Staphylococcus aureus [14] = assay: Antimicrobial activity against Staphylococcus aureus NCTC7447 assessed as diameter of inhibition zone at 20 mg/ml incubated for 24 hrs by disk diffusion method; format: functional; conditions: read-out: DIZ
Escherichia coli [15] = assay: Antibacterial activity against Escherichia coli assessed as diameter of inhibition zone; format: functional
Staphylococcus aureus [16] = assay: Antibacterial activity against Staphylococcus aureus assessed as diameter of inhibition zone; format: functional
Bacillus subtilis = assay: Antibacterial activity against Bacillus subtilis assessed as diameter of inhibition zone; format: functional
Bacillus cereus = assay: Antimicrobial activity against Bacillus cereus ATCC14579 assessed as diameter of inhibition zone at 20 mg/ml incubated for 24 hrs by disk diffusion method; format: functional; conditions: read-out: DIZ
Alpha-glucosidase = Alpha-glucosidase (Saccharomyces cerevisiae S288c, UniProt P53341+P38158+P07265); assay: Inhibition of Saccharomyces cerevisiae alpha-glucosidase preincubated for 5 mins followed by PNP-GLUC substrate addition and measured after 20 mins by spectroscopic analysis; format: protein assay
[17] = Inhibition of porcine pancreatic alpha-amylase preincubated for 10 mins followed by substrate starch addition and measured after 10 mins by colorimetric analysis; design: species or system Sus scrofa
Albumin = Albumin (Bos taurus, UniProt P02769); assay: […] bovine serum albumin denaturation incubated for 23 mins by UV-Visible spectrophotometry
Chain of Albumin (P02769 whole entry): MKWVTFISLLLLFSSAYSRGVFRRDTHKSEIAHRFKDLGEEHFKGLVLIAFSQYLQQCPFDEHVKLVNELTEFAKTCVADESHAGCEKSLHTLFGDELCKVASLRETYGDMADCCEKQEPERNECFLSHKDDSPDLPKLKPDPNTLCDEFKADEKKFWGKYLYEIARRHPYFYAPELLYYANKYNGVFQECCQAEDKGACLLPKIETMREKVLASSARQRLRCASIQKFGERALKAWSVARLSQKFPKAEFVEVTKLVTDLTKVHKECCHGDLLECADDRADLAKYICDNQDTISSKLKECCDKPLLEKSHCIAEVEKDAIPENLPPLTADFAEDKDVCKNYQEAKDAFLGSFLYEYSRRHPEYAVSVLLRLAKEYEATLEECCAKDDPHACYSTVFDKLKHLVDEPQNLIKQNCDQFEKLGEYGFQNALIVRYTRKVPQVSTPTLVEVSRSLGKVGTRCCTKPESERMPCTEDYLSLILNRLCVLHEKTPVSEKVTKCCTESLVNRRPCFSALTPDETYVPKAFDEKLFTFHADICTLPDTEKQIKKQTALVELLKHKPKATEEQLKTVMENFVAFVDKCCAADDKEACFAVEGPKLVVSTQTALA

CCO/C=N/C1=C(C#N)C(c2ccc(OC)cc2)c2c(n(C)c(=O)n(C)c2=O)O1 (stereo unspecified)
MIC (Staphylococcus aureus [1]): 6.25 µg/mL (≈ 15.8 µM)
MIC (Escherichia coli [2]): 6.25 µg/mL (≈ 15.8 µM)
MIC (Pseudomonas aeruginosa [3]): 6.25 µg/mL (≈ 15.8 µM)
MIC (Klebsiella pneumoniae [4]): 6.25 µg/mL (≈ 15.8 µM)

N#CC1=C(N)Oc2[nH]c(=O)[nH]c(=O)c2C1c1ccc(Cl)cc1Cl (stereo unspecified)
IC50 (Urease): 19.5 µM

COc1ccc(-n2cnc3c(c2=N)C(c2ccccc2)C2=C(CC(C)(C)CC2=O)O3)cc1 (stereo unspecified)
Time (Homo sapiens): 57 s

Nc1nn(-c2cc([N+](=O)[O-])ccc2[N+](=O)[O-])c2c1Oc1[nH]c(=O)[nH]c(=O)c1C2c1cccs1 (stereo unspecified)
IC50 (HCT-116): 2.8 µM
IC50 (MCF7 [5]): 3.17 µM

CCc1ccc(-n2cnc3c(c2=N)C(c2ccccc2)C2=C(CC(C)(C)CC2=O)O3)cc1 (stereo unspecified)
Time (Homo sapiens): 61.8 s

O=c1[nH]c2c(c(=O)[nH]1)C(c1cccs1)c1[nH]c(=S)n(-c3ccccc3)c(=O)c1O2 (stereo unspecified)
IC50 (HCT-116): 2.76 µM
IC50 (MCF7 [5]): 1.28 µM

Cc1n[nH]c2c1C(c1cccc([N+](=O)[O-])c1)c1c([nH]c(=O)[nH]c1=O)O2 (stereo unspecified)
Activity [6]: 90.3%
diameter of the inhibition zone (DIZ) (Staphylococcus aureus [7]): 12 mm

Cc1cccc(-n2cnc3c(c2=N)C(c2ccccc2)C2=C(CC(C)(C)CC2=O)O3)c1 (stereo unspecified)
Time (Homo sapiens): 53.7 s

COc1ccc2c(-c3nc4c5c(ncn4n3)OC3=C(C(=O)CC(C)(C)C3)C5c3ccccc3)cc(=O)oc2c1 (stereo unspecified)
Time (Homo sapiens): 55.1 s

CC1(C)CC(=O)C2=C(C1)Oc1ncn(-c3ccccc3)c(=N)c1C2c1ccccc1 (stereo unspecified)
Time (Homo sapiens): 57.1 s

O=C1Nc2c(c(=O)oc3ccccc23)C(c2ccc(O)cc2)N1 (stereo unspecified)
IC50 (HeLa): 38 µM
IC50 (MCF7 [8]): 38 µM

CC1(C)CC(=O)C2=C(C1)Oc1ncn3ncnc3c1C2c1ccccc1 (stereo unspecified)
Time (Homo sapiens): 59.4 s

N#CC1=C(N)Oc2cc(O)ccc2C1c1ccco1 (stereo unspecified)
IC50 [9]: 50.32 µg/mL (≈ 198 µM)

COc1ccc(C2c3c(N)ncnc3Oc3ccc4cc(Br)ccc4c32)cc1 (stereo unspecified)
diameter of the inhibition zone (DIZ) (Penicillium chrysogenum): 13 mm
diameter of the inhibition zone (DIZ) (Aspergillus ochraceus): 17 mm

CCO/C=N/C1=C(C#N)C(c2ccccc2Cl)c2c(n(C)c(=O)n(C)c2=O)O1 (stereo unspecified)
MIC (Staphylococcus aureus [1]): 6.25 µg/mL (≈ 15.6 µM)
MIC (Escherichia coli [2]): 6.25 µg/mL (≈ 15.6 µM)
MIC (Pseudomonas aeruginosa [3]): 6.25 µg/mL (≈ 15.6 µM)
MIC (Klebsiella pneumoniae [4]): 6.25 µg/mL (≈ 15.6 µM)

O=C1Nc2c(c(=O)oc3ccccc23)C(c2cccc(O)c2)N1 (stereo unspecified)
IC50 (HeLa): 90 µM
IC50 (MCF7 [8]): 38 µM

O=C1Nc2c(c(=O)oc3ccccc23)C(c2ccc(Br)cc2)N1 (stereo unspecified)
IC50 (HeLa): 59 µM
IC50 (MCF7 [8]): 38 µM

O=C1Nc2c(c(=O)oc3ccccc23)C(c2ccccc2)N1 (stereo unspecified)
IC50 (HeLa): 46 µM
IC50 (MCF7 [8]): 33 µM

COc1cc(C2C(C#N)=C(N)Oc3cc(O)ccc32)ccc1O (stereo unspecified)
IC50 [10]: 53.54 µg/mL (≈ 173 µM)
IC50 [9]: 50.32 µg/mL (≈ 162 µM)

Nc1ncnc2c1C(c1ccc(Br)cc1)c1ccc(O)cc1O2 (stereo unspecified)
IC50 [9]: 50.32 µg/mL (≈ 136 µM)

Nc1ncnc2c1C(c1cc(Cl)ccc1O)c1ccc(O)cc1O2 (stereo unspecified)
IC50 [9]: 50.32 µg/mL (≈ 147 µM)

N#CC1=C(N)Oc2[nH]c(=O)[nH]c(=O)c2C1c1cccc([N+](=O)[O-])c1 (stereo unspecified)
diameter of the inhibition zone (DIZ) (Salmonella typhimurium): 14 mm
zone of inhibition at 20000 µg/mL (Escherichia coli [11]): 11 mm
zone of inhibition at 20000 µg/mL (Pseudomonas aeruginosa [12]): 11 mm
zone of inhibition at 20000 µg/mL (Klebsiella pneumoniae [13]): 6 mm
zone of inhibition at 20000 µg/mL (Staphylococcus aureus [14]): 7 mm
diameter of the inhibition zone (DIZ) (Escherichia coli [15]): 10 mm
diameter of the inhibition zone (DIZ) (Staphylococcus aureus [16]): 14 mm
diameter of the inhibition zone (DIZ) (Bacillus subtilis): 12 mm
zone of inhibition at 20000 µg/mL (Bacillus cereus): 14 mm
IC50 (Urease): 98.9 µM

Nc1ncnc2c1Oc1[nH]c(=O)[nH]c(=O)c1C2c1cccs1 (stereo unspecified)
IC50 (HCT-116): 7.25 µM
IC50 (MCF7 [5]): 0.87 µM

Brc1ccc2c3c(ccc2c1)Oc1ncn2nc(-c4ccccc4)nc2c1C3
diameter of the inhibition zone (DIZ) (Penicillium chrysogenum): 13 mm
diameter of the inhibition zone (DIZ) (Aspergillus ochraceus): 17 mm

CC1(C)CC(=O)C2=C(C1)Oc1ncn(-c3cccc4ccccc34)c(=N)c1C2c1ccccc1 (stereo unspecified)
Time (Homo sapiens): 63.2 s

CC1(C)CC(=O)C2=C(C1)Oc1ncn(-c3cccc(Cl)c3)c(=N)c1C2c1ccccc1 (stereo unspecified)
Time (Homo sapiens): 54.8 s

COc1ccc(C2c3c(nc[nH]c3=O)Oc3ccc4cc(Br)ccc4c32)cc1 (stereo unspecified)
diameter of the inhibition zone (DIZ) (Penicillium chrysogenum): 13 mm
diameter of the inhibition zone (DIZ) (Aspergillus ochraceus): 17 mm

Cn1c2c(c(=O)n(C)c1=O)C(c1ccc(O)cc1)C(C#N)=C(N)O2 (stereo unspecified)
IC50 (Urease): 108 µM

COc1ccc(C2c3c(ncn(C)c3=N)Oc3ccc4cc(Br)ccc4c32)cc1 (stereo unspecified)
diameter of the inhibition zone (DIZ) (Penicillium chrysogenum): 13 mm
diameter of the inhibition zone (DIZ) (Aspergillus ochraceus): 17 mm

CONC1=C(C#N)Oc2[nH]c(=O)[nH]c(=O)c2C1c1cccs1 (stereo unspecified)
IC50 (HCT-116): 6.38 µM
IC50 (MCF7 [5]): 3.12 µM

COc1ccc(C2C(C#N)=C(N)Oc3cc(O)ccc32)cc1 (stereo unspecified)
IC50 [10]: 53.54 µg/mL (≈ 182 µM)

O=C1Nc2c(c(=O)oc3ccccc23)C(c2ccccc2O)N1 (stereo unspecified)
IC50 (HeLa): 38 µM
IC50 (MCF7 [8]): 38 µM

Nc1nc(S)nc2c1Oc1[nH]c(=O)[nH]c(=O)c1C2c1cccs1 (stereo unspecified)
IC50 (HCT-116): 2.76 µM
IC50 (MCF7 [5]): 2.65 µM

Cc1ccc(C2C(C#N)=C(N)Oc3[nH]c(=O)[nH]c(=O)c32)cc1 (stereo unspecified)
diameter of the inhibition zone (DIZ) (Salmonella typhimurium): 8 mm
diameter of the inhibition zone (DIZ) (Bacillus subtilis): 10 mm
IC50 (Urease): 71.9 µM

COc1ccc(C2NC(=O)Nc3c2c(=O)oc2ccccc32)cc1OC (stereo unspecified)
IC50 (HeLa): 38 µM
IC50 (MCF7 [8]): 38 µM

Cc1n[nH]c2c1C(c1ccccc1O)c1c([nH]c(=O)[nH]c1=O)O2 (stereo unspecified)
diameter of the inhibition zone (DIZ) (Staphylococcus aureus [7]): 14 mm

CC1(C)CC(=O)C2=C(C1)Oc1ncn3nc(CC#N)nc3c1C2c1ccccc1 (stereo unspecified)
Time (Homo sapiens): 63.4 s

Cc1n[nH]c2c1C(c1cc([N+](=O)[O-])ccc1O)c1c([nH]c(=O)[nH]c1=O)O2 (stereo unspecified)
Activity [6]: 89.1%

O=C1Nc2c(c(=O)oc3ccccc23)C(c2ccc(Cl)cc2)N1 (stereo unspecified)
IC50 (HeLa): 46 µM
IC50 (MCF7 [8]): 33 µM

CN1C(=O)C2C(c3ccccc3)C(C#N)=C(N)OC2N(C)C1=O (stereo unspecified)
IC50 (Urease): 98.8 µM

O=C(C1=C(c2ccccc2O)Oc2[nH]c(=S)[nH]c(=O)c2C1c1ccc(O)cc1)N1CCCCC1 (stereo unspecified)
IC50 (Alpha-glucosidase): 3553 µM
IC50 [17]: 27.1 µM
IC50 (Albumin): 19.7 µM

CCO/C=N/C1=C(C#N)C(c2ccccc2OC)c2c(n(C)c(=O)n(C)c2=O)O1 (stereo unspecified)
MIC (Staphylococcus aureus [1]): 6.25 µg/mL (≈ 15.8 µM)
MIC (Escherichia coli [2]): 6.25 µg/mL (≈ 15.8 µM)
MIC (Pseudomonas aeruginosa [3]): 6.25 µg/mL (≈ 15.8 µM)
MIC (Klebsiella pneumoniae [4]): 6.25 µg/mL (≈ 15.8 µM)

Cc1n[nH]c2c1C(c1ccncc1)c1c([nH]c(=O)[nH]c1=O)O2 (stereo unspecified)
Activity [6]: 59%

O=c1[nH]c2c(c(=O)[nH]1)C(c1cccs1)c1[nH]c(=S)[nH]c(=S)c1O2 (stereo unspecified)
IC50 (HCT-116): 2.76 µM
IC50 (MCF7 [5]): 4.95 µM

CCOc1ccc(C2C(C#N)=C(N)Oc3cc(O)ccc32)cc1 (stereo unspecified)
IC50 [10]: 53.54 µg/mL (≈ 174 µM)

Cc1n[nH]c2c1C(/C=C/c1ccccc1)c1c([nH]c(=O)[nH]c1=O)O2 (stereo unspecified)
Activity [6]: 90.3%
diameter of the inhibition zone (DIZ) (Staphylococcus aureus [7]): 16 mm

Cc1nc2c3c(ncn2n1)OC1=C(C(=O)CC(C)(C)C1)C3c1ccccc1 (stereo unspecified)
Time (Homo sapiens): 60.1 s

Cc1nc(O)c2c(n1)Oc1[nH]c(=O)[nH]c(=O)c1C2c1cccs1 (stereo unspecified)
IC50 (HCT-116): 2.76 µM
IC50 (MCF7 [5]): 4.48 µM

Brc1ccc2c3c(ccc2c1)Oc1ncn2ncnc2c1C3
diameter of the inhibition zone (DIZ) (Penicillium chrysogenum): 13 mm
diameter of the inhibition zone (DIZ) (Aspergillus ochraceus): 17 mm

O=C(C1=C(c2ccccc2O)Oc2[nH]c(=S)[nH]c(=O)c2C1c1cc2ccccc2cc1O)N1CCCCC1 (stereo unspecified)
IC50 (Alpha-glucosidase): 5337 µM
IC50 [17]: 6.49 µM
IC50 (Albumin): 20.1 µM
